Patent US20240383874A1, “BENZENE RING DERIVATIVE, AND COMPOSITION AND PHARMACEUTICAL USE THEREOF” (Xizang Haisco Pharmaceutical Co., Ltd., priority 2020, published 2024)
Counter-ions that a name gives are not always drawn.

Tested on: 22RV1 cells
Test: Experiment 2 on inhibiting 22RV1 cell proliferation (7 days, CellTiter-Glo)
Format: cell-based
Settings: Homo sapiens, 22Rv1, 168 h, 1% css-FBS phenol red-free medium, incubated with compound 7 days, read-out: IC50 values on proliferation inhibition of 22RV1 cells
Experimental: Prostate cancer cells 22RV1 were purchased from ATCC, the cell medium was RPMI 1640+10% FBS, and the cells were cultured in an incubator at 37° C. under 5% CO2. On day 1, the cells in an exponential phase were collected. With a 1% css-FBS phenol red-free medium, the cell suspension was adjusted to a corresponding concentration, plated at 2000 cells/well and incubated overnight. On day 2, compounds at different concentrations were added, and the plate was placed in the incubator and incubated for further 7 days. After the incubation was completed, according to operation instructions for a CellTiter-Glo kit (Promega, G7573), 50 μL of CTG solution, which was already pre-melted and equilibrated to room temperature, was added to each well, and the mixtures were uniformly mixed for 2 min using a microplate shaker. The plate was placed at room temperature for 10 min, and then fluorescence signal values were measured using a microplate reader (PHERAstar FSX). The results were processed according to formula (2), the survival rate of the compound at different concentrations was calculated, and the IC50 value of the compound with a survival rate of 50% was calculated using origin9.2 software with DoseResp function, wherein RLU compound was the readout of the treated group, and RLU control was the average value of the DMSO vehicle control group.

| IC50 | SMILES |
| --- | --- |
| 633 nM | CC(C)(c1ccc(OCc2ccnc(N3CCC(CN4CCN(c5ccc6c(c5)C(=O)N(C5CCC(=O)NC5=O)C6=O)CC4)CC3)n2)cc1)c1cc(Cl)cc(C#N)c1 (stereo not shown) [Compound 41 trifluoroacetate, 3-chloro-5-(2-(4-((2-(4-((4-(2-(2,6-dioxopiperidin-3-yl)-1,3-dioxoisoindolin-5-yl)piperazin-1-yl)methyl)piperidin-1-yl)pyrimidin-4-yl)methoxy)phenyl)propan-2-yl)benzonitrile] |
| 453 nM | CC(C)(c1ccc(OCc2ccnc(N3CCC(N4CCC(CN5CCN(c6ccc7c(c6)C(=O)N(C6CCC(=O)NC6=O)C7=O)CC5)CC4)CC3)n2)cc1)c1cc(Cl)cc(C#N)c1 (stereo not shown) [Compound 42 trifluoroacetate, 3-chloro-5-(2-(4-((2-(4-((4-(2-(2,6-dioxopiperidin-3-yl)-1,3-dioxoisoindolin-5-yl)piperazin-1-yl)methyl)-[1,4′-bipiperidin]-1′-yl)pyrimidin-4-yl)methoxy)phenyl)propan-2-yl)benzonitrile] |
| 461 nM | CC(C)(c1ccc(OCc2ccnc(N3CCN(C4CCN(C5CCC6(CC5)CN(c5ccc7c(c5)C(=O)N(C5CCC(=O)NC5=O)C7=O)C6)CC4)CC3)n2)cc1)c1cc(Cl)cc(C#N)c1 (stereo not shown) [Compound 46 trifluoroacetate, 3-chloro-5-(2-(4-((2-(4-(1-(2-(2-(2,6-dioxopiperidin-3-yl)-1,3-dioxoisoindolin-5-yl)-2-azaspiro[3.5]nonan-7-yl)piperidin-4-yl)piperazin-1-yl)pyrimidin-4-yl)methoxy)phenyl)propan-2-yl)benzonitrile] |
| 724 nM | CC(C)(c1ccc(OCc2ccnc(N3CC(N4CCC(CN5CCN(c6ccc7c(c6)C(=O)N(C6CCC(=O)NC6=O)C7=O)CC5)CC4)C3)n2)cc1)c1cc(Cl)cc(C#N)c1 (stereo not shown) [Compound 47 trifluoroacetate, 3-chloro-5-(2-(4-((2-(3-(4-((4-(2-(2,6-dioxopiperidin-3-yl)-1,3-dioxoisoindolin-5-yl)piperazin-1-yl)methyl)piperidin-1-yl)azetidin-1-yl)pyrimidin-4-yl)methoxy)phenyl)propan-2-yl)benzonitrile] |
| 494 nM | CC(C)(c1ccc(OCc2ccnc(N3CCN(C4CCN(CC5CCN(c6ccc7c(c6)C(=O)N(C6CCC(=O)NC6=O)C7=O)CC5)CC4)CC3)n2)cc1)c1cc(Cl)cc(C#N)c1 (stereo not shown) [Compound 49 trifluoroacetate, 3-chloro-5-(2-(4-((2-(4-(1-((1-(2-(2,6-dioxopiperidin-3-yl)-1,3-dioxoisoindolin-5-yl)piperidin-4-yl)methyl)piperidin-4-yl)piperazin-1-yl)pyrimidin-4-yl)methoxy)phenyl)propan-2-yl)benzonitrile] |
| 956 nM | CC(C)(c1ccc(OCc2ccnc(N3CCN(C4CN(C5CCCN(c6ccc7c(c6)C(=O)N(C6CCC(=O)NC6=O)C7=O)C5)C4)CC3)n2)cc1)c1cc(Cl)cc(C#N)c1 (stereo not shown) [Compound 52 trifluoroacetate, 3-chloro-5-(2-(4-((2-(4-(1-(1-(2-(2,6-dioxopiperidin-3-yl)-1,3-dioxoisoindolin-5-yl)piperidin-3-yl)azetidin-3-yl)piperazin-1-yl)pyrimidin-4-yl)methoxy)phenyl)propan-2-yl)benzonitrile] |
| 623 nM | CC(C)(c1ccc(OCc2ccnc(N3CCN(C4CN(C5CC6(CCN(c7ccc8c(c7)C(=O)N(C7CCC(=O)NC7=O)C8=O)CC6)C5)C4)CC3)n2)cc1)c1cc(Cl)cc(C#N)c1 (stereo not shown) [Compound 53 trifluoroacetate, 3-chloro-5-(2-(4-((2-(4-(1-(7-(2-(2,6-dioxopiperidin-3-yl)-1,3-dioxoisoindolin-5-yl)-7-azaspiro[3.5]nonan-2-yl)azetidin-3-yl)piperazin-1-yl)pyrimidin-4-yl)methoxy)phenyl)propan-2-yl)benzonitrile] |
| 519 nM | CC(C)(c1ccc(OCc2ccnc(N3CCN(C4CN(C5CCN(c6ccc7c(c6)C(=O)N(C6CCC(=O)NC6=O)C7=O)C5)C4)CC3)n2)cc1)c1cc(Cl)cc(C#N)c1 (stereo not shown) [Compound 55 trifluoroacetate, 3-chloro-5-(2-(4-((2-(4-(1-(1-(2-(2,6-dioxopiperidin-3-yl)-1,3-dioxoisoindolin-5-yl)pyrrolidin-3-yl)azetidin-3-yl)piperazin-1-yl)pyrimidin-4-yl)methoxy)phenyl)propan-2-yl)benzonitrile] |

Continued, molecule first:

| SMILES | IC50 |
| --- | --- |
| Cn1c(=O)n(C2CCC(=O)NC2=O)c2cccc(CN3CC(N4CCC(N5CCC6(CCN(c7nccc(COc8ccc(C(C)(C)c9cc(Cl)c(OCCCl)c(C#N)c9)cc8)n7)CC6)CC5)CC4)C3)c21 (stereo not shown) [Compound 31 trifluoroacetate, 3-chloro-2-(2-chloroethoxy)-5-(2-(4-((2-(9-(1-(1-((1-(2,6-dioxopiperidin-3-yl)-3-methyl-2-oxo-2,3-dihydro-1H-benzo[d]imidazol-4-yl)methyl)azetidin-3-yl)piperidin-4-yl)-3,9-diazaspiro[5.5]undecan-3-yl)pyrimidin-4-yl)methoxy)phenyl)propan-2-yl)benzonitrile] | 401 nM |
| CC(C)(c1ccc(OCc2ccnc(N3CCC(C4CCN(CC5CCN(c6ccc7c(c6)C(=O)N(C6CCC(=O)NC6=O)C7=O)CC5)CC4)CC3)n2)cc1)c1cc(Cl)cc(C#N)c1 (stereo not shown) [Compound 38 trifluoroacetate, 3-chloro-5-(2-(4-((2-(1′-((1-(2-(2,6-dioxopiperidin-3-yl)-1,3-dioxoisoindolin-5-yl)piperidin-4-yl)methyl)-[4,4′-bipiperidin]-1-yl)pyrimidin-4-yl)methoxy)phenyl)propan-2-yl)benzonitrile] | 883 nM |
| CC(C)(c1ccc(OCc2ccnc(N3CCC(CN4CCN(c5cccc6c5C(=O)N(C5CCC(=O)NC5=O)C6=O)CC4)CC3)n2)cc1)c1cc(Cl)cc(C#N)c1 (stereo not shown) [Compound 39 trifluoroacetate, 3-chloro-5-(2-(4-((2-(4-((4-(2-(2,6-dioxopiperidin-3-yl)-1,3-dioxoisoindolin-4-yl)piperazin-1-yl)methyl)piperidin-1-yl)pyrimidin-4-yl)methoxy)phenyl)propan-2-yl)benzonitrile] | 936 nM |
| CC(C)(c1ccc(OCc2ccnc(N3CCC(N4CCC(CN5CCN(c6cccc7c6C(=O)N(C6CCC(=O)NC6=O)C7=O)CC5)CC4)CC3)n2)cc1)c1cc(Cl)cc(C#N)c1 (stereo not shown) [Compound 40 trifluoroacetate, 3-chloro-5-(2-(4-((2-(4-((4-(2-(2,6-dioxopiperidin-3-yl)-1,3-dioxoisoindolin-4-yl)piperazin-1-yl)methyl)-[1,4′-bipiperidin]-1′-yl)pyrimidin-4-yl)methoxy)phenyl)propan-2-yl)benzonitrile] | 764 nM |
| Cc1ncsc1-c1ccc([C@H](C)NC(=O)[C@@H]2C[C@@H](O)CN2C(=O)[C@@H](NC(=O)CN2CCC(N3CCC(CN4CCN(c5nccc(COc6ccc(C(C)(C)c7cc(Cl)cc(C#N)c7)cc6)n5)CC4)CC3)CC2)C(C)(C)C)cc1 [Compound 43 trifluoroacetate, (2S,4R)-1-((S)-2-(2-(4-((4-(4-((4-(2-(3-chloro-5-cyanophenyl)propan-2-yl)phenoxy)methyl)pyrimidin-2-yl)piperazin-1-yl)methyl)-[1,4′-bipiperidin]-1′-yl)acetamido)-3,3-dimethylbutanoyl)-4-hydroxy-N-((S)-1-(4-(4-methylthiazol-5-yl)phenyl)ethyl)pyrrolidine-2-carboxamide] | 94 nM |
| CC(C)(c1ccc(OCc2ccnc(N3CC(N4CCC(CN5CCN(c6cccc7c6C(=O)N(C6CCC(=O)NC6=O)C7=O)CC5)CC4)C3)n2)cc1)c1cc(Cl)cc(C#N)c1 (stereo not shown) [Compound 48 trifluoroacetate, 3-chloro-5-(2-(4-((2-(3-(4-((4-(2-(2,6-dioxopiperidin-3-yl)-1,3-dioxoisoindolin-4-yl)piperazin-1-yl)methyl)piperidin-1-yl)azetidin-1-yl)pyrimidin-4-yl)methoxy)phenyl)propan-2-yl)benzonitrile] | 608 nM |
| Cc1ncsc1-c1ccc([C@H](C)NC(=O)[C@@H]2C[C@@H](O)CN2C(=O)[C@@H](NC(=O)CN2CCC(CN3CCC(N4CCN(c5nccc(COc6ccc(C(C)(C)c7cc(Cl)cc(C#N)c7)cc6)n5)CC4)CC3)CC2)C(C)(C)C)cc1 [Compound 50 trifluoroacetate, (2S,4R)-1-((S)-2-(2-(4-((4-(4-(4-((4-(2-(3-chloro-5-cyanophenyl)propan-2-yl)phenoxy)methyl)pyrimidin-2-yl)piperazin-1-yl)piperidin-1-yl)methyl)piperidin-1-yl)acetamido)-3,3-dimethylbutanoyl)-4-hydroxy-N-((S)-1-(4-(4-methylthiazol-5-yl)phenyl)ethyl)pyrrolidine-2-carboxamide] | 398 nM |
| Cc1ncsc1-c1ccc([C@H](C)NC(=O)[C@@H]2C[C@@H](O)CN2C(=O)[C@@H](NC(=O)CN2CCC(CN3CCN(c4nccc(COc5ccc(C(C)(C)c6cc(Cl)cc(C#N)c6)cc5)n4)CC3)CC2)C(C)(C)C)cc1 [Compound 51 trifluoroacetate, (2S,4R)-1-((S)-2-(2-(4-((4-(4-((4-(2-(3-chloro-5-cyanophenyl)propan-2-yl)phenoxy)methyl)pyrimidin-2-yl)piperazin-1-yl)methyl)piperidin-1-yl)acetamido)-3,3-dimethylbutanoyl)-4-hydroxy-N-((S)-1-(4-(4-methylthiazol-5-yl)phenyl)ethyl)pyrrolidine-2-carboxamide] | 825 nM |
